The target of assay [1] is T1, Recombinant human FAP (Homo sapiens, UniProt Q12884).
T1 construct: purchased R&D systems
T1 sequence (Q12884 1-760): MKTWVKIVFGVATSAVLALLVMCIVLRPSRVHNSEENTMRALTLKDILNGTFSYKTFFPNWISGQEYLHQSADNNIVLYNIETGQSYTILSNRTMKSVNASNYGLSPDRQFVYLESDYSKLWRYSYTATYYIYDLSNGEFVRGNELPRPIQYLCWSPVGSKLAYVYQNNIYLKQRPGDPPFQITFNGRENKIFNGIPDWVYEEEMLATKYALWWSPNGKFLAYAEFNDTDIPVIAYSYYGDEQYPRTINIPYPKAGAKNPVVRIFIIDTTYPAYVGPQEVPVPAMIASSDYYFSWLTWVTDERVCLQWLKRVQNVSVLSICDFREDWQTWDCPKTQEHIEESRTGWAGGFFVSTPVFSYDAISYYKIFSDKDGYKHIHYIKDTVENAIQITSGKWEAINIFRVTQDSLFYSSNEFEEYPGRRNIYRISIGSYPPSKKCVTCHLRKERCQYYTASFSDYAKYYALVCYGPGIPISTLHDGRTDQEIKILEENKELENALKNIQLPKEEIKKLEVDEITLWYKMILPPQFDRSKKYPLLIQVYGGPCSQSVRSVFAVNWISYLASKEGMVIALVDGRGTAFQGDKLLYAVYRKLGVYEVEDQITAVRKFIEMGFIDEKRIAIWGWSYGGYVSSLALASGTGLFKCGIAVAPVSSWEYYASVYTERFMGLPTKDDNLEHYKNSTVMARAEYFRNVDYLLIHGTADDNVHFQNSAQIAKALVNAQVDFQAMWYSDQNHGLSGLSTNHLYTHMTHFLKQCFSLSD
Put plainly: FAP inhibition, fluorogenic substrate Z-Gly-Pro-AMC. The format is biochemical. The settings on record: for inhibition at 1 µM: read-out: hFAP inhibition % at 1 μM. As for the experimental part:
The compounds according to the present technology were evaluated in terms of the inhibitory effect on the activity of dipeptidyl peptidases including FAP by using a substrate producing fluorescent substances upon enzymatic decomposition. The test was conducted at 25° C. to get a final reaction volume of 100 μL in a 96 black well plate. […] Briefly, the test compounds were dissolved in dimethyl sulfoxide (DMSO) at a concentration of 20 mM and then subjected to serial dilution, thereby creating an 8 point curve. As for the control group, a 6 point curve created by serial dilution of Talabostat in the same buffer solution was used. Fluorescence intensity was measured using a microplate reader (Flexstation3, Molecular Devices) under the wavelength condition exciting at 380 nm and reading the emission at 460 nm. The inhibitory effect of the test compounds was measured as a decrease (%) in the signal rate as compared to the control group without any inhibitor. Data was fixed to a logistic model with four variables and IC50 value was calculated using GraphPad Prism program. Recombinant human FAP (R&D systems) was diluted with 50 mM tris (pH 7.5) buffer comprising 1 M of sodium chloride and 1 mg/ml of bovine serum albumin (BSA) to be 10 ng per final reaction. The test compounds were subjected to serial dilution in a buffer under the condition containing up to 0.1% of DMSO. Z-Gly-Pro-AMC (Bachem) was used as a substrate. By dissolving in DMSO and then diluting in the same buffer, the substrate was added to be […] per final reaction.

The target of assay [2] is DPP4 (Homo sapiens, UniProt P27487). Put plainly: DPP4 inhibition, fluorogenic substrate H-Gly-Pro-AMC. The format is biochemical. Further details: purchased R&D Systems. The settings on record: for inhibition at 1 µM: read-out: hDPP4 inhibition % at 1 μM; for IC50: recombinant human DPP4. As for the experimental part: The compounds according to the present technology were evaluated in terms of the inhibitory effect on the activity of dipeptidyl peptidases including FAP by using a substrate producing fluorescent substances upon enzymatic decomposition. The test was conducted at 25° C. to get a final reaction volume of 100 μL in a 96 black well plate. […] Briefly, the test compounds were dissolved in dimethyl sulfoxide (DMSO) at a concentration of 20 mM and then subjected to serial dilution, thereby creating an 8 point curve. As for the control group, a 6 point curve created by serial dilution of Talabostat in the same buffer solution was used. Fluorescence intensity was measured using a microplate reader (Flexstation3, Molecular Devices) under the wavelength condition exciting at 380 nm and reading the emission at 460 nm. The inhibitory effect of the test compounds was measured as a decrease (%) in the signal rate as compared to the control group without any inhibitor. Data was fixed to a logistic model with four variables and IC50 value was calculated using GraphPad Prism program. As for recombinant human DPP4 (R&D Systems), 25 mM tris (pH 8.0) buffer as a buffer solution and H-Gly-Pro-AMC (Bachem) as a substrate were used. As for recombinant human DPP7 (R&D Systems), 25 mM MES (pH 6.0) buffer as a buffer solution and Lys-Pro-AMC (Bachem) as a substrate were used. As for recombinant human DPP8 (PBS Bioscience), as a buffer solution, a 10 mM tris (pH 7.4) buffer comprising 10 mM of magnesium chloride and 0.05% of Tween 20, and Z-Ala-Pro-AMC (BPS Bioscience) as a substrate were used. As for recombinant human DPP9 (R&D Systems), a 25 mM tris (pH 8.0) buffer as a buffer solution and H-Gly-Pro-AMC (Bachem) as a substrate were used. As for recombinant human PREP (R&D System), as a buffer solution, a 25 mM tris (pH 7.5) buffer comprising 250 mM sodium chloride and 2.5 mM DTT (Dithiolthreitol), and Z-Gly-Pro-AMC (Bachem) as a substrate were used. The evaluation was made by using 10 ng of DPP4, PDD7, and PREP, 20 ng of DPP8, and 50 ng of DPP9 based on the final reaction. In the evaluation of DPP4, the test compounds were subjected to serial dilution in a buffer under the condition containing up to 0.1% of DMSO. In the evaluation of DPP7, DPP8, DPP9, and PREP, the test compounds were subjected to serial dilution in each buffer under the condition containing up to 0.5% of DMSO.
Sequence of DPP4 (P27487 whole entry): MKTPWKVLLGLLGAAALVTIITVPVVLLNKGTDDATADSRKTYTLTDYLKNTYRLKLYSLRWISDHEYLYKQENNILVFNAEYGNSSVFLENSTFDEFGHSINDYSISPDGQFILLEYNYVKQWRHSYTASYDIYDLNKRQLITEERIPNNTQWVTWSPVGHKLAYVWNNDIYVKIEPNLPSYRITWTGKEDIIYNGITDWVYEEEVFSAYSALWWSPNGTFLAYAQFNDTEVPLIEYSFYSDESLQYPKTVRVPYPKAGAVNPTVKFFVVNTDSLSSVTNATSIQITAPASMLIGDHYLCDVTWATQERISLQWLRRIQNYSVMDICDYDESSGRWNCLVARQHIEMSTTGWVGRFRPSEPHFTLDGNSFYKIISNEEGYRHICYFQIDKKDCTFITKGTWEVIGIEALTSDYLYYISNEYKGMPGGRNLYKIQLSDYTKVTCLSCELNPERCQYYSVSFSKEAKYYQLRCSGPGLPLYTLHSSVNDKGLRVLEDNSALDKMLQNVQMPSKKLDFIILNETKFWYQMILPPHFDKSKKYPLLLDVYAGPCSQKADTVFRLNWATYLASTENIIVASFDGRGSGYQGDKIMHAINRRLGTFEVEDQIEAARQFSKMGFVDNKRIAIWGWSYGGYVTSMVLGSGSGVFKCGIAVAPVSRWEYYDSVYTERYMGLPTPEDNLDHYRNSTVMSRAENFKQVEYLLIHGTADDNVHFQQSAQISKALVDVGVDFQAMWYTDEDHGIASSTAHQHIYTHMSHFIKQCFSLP

Where [3] appears, read: 25° C., Z-Gly-Pro-AMC substrate.
Where [4] appears, read: recombinant human FAP, substrate Z-Gly-Pro-AMC.

Molecules are shown by their SMILES.

Consider `N#C[C@@H]1CCCN1C(=O)CN1CC[C@H](Oc2ccc3ncnc(Cl)c3c2)C1` [Example 74, (S)-1-(2-((S)-3-((4-chloroquinazolin-6-yl)oxy)pyrrolidin-1-yl)acetyl)pyrrolidine-2-carbonitrile], for which, in assay [1], the inhibition at 1 µM turned out to be 92.3%. For the same compound, the “hDPP4 inhibition % at 1 μM” value in assay [2] was “No inhibition**”.

Take `N#C[C@@H]1CCCN1C(=O)CN1CC[C@H](Oc2ccc3c(c2)OCO3)C1` [Example 67, (S)-1-(2-((S)-3-(benzo[d][1,3]dioxol-5-yloxy)pyrrolidin-1-yl)acetyl)pyrrolidine-2-carbonitrile]: in assay [1], the inhibition at 1 µM is 64%. Moreover, the “hDPP4 inhibition % at 1 μM” value in assay [2] is listed as “No inhibition**”.

`Cc1cccc2c(C(=O)N[C@H]3CCN(CC(=O)N4CCC[C@H]4C#N)C3)coc12` [Example 45, N—((S)-1-(2-((S)-2-cyanopyrrolidin-1-yl)-2-oxoethyl)pyrrolidin-3-yl)-7-methylbenzofuran-3-carboxamide]: in assay [1] (setting [3]), the IC50 is 30.1 nM. Moreover, the inhibition at 1 µM in assay [2] was 1.2%.

With `Cc1ccc2occ(C(=O)N[C@H]3CCN(CC(=O)N4CCC[C@H]4C#N)C3)c2c1` [Example 52, N—((S)-1-(2-((S)-2-cyanopyrrolidin-1-yl)-2-oxoethyl)pyrrolidin-3-yl)-5-methylbenzofuran-3-carboxamide], the IC50 in assay [1] (setting [3]) is 13.6 nM. The inhibition at 1 µM in assay [2] came out at 0.5%.

Take `Cc1ccc2cccc(O[C@H]3CCN(CC(=O)N4CCC[C@H]4C#N)C3)c2n1` [Example 78, (S)-1-(2-((S)-3-((2-methylquinolin-8-yl)oxy)pyrrolidin-1-yl)acetyl)pyrrolidine-2-carbonitrile]: the IC50 in assay [1] (setting [3]) was 22.5 nM. In assay [2], the “hDPP4 inhibition % at 1 μM” value is recorded as “No inhibition**”.

`N#Cc1ccc2c(NC3CCN(CC(=O)N4C[C@@H](F)C[C@H]4C#N)CC3)cccc2n1` [Example 335, 5-[[1-[2-oxo-2-[(2S,4S)-2-cyano-4-fluoro-pyrrolidin-1-yl]ethyl]-4-piperidyl]amino]quinoline-2-carbonitrile]: the IC50 in assay [1] (setting [4]) worked out at 5.9 nM; in assay [2], 7330 nM.

Regarding `N#C[C@@H]1C[C@H](F)CN1C(=O)CN1CCC(Nc2cccc3ncc(Cl)cc23)CC1` [Example 333, (2S,4S)-1-[2-[4-[(3-chloro-5-quinolyl)amino]-1-piperidyl]acetyl]-4-fluoro-pyrrolidine-2-carbonitrile], the IC50 was 2.6 nM in assay [1] (setting [4]) and 7540 nM in assay [2].

On to `N#C[C@@H]1CCCN1C(=O)CN1CC[C@H](Oc2ccnc3cc(Cl)ccc23)C1` [Example 79, (S)-1-(2-((S)-3-((7-chloroquinolin-4-yl)oxy)pyrrolidin-1-yl)acetyl)pyrrolidine-2-carbonitrile], for which, in assay [1] (setting [3]), the IC50 was found to be 17.9 nM. In assay [2], the inhibition at 1 µM amounted to 4.6%.

`N#C[C@@H]1CCCN1C(=O)CN1CC[C@H](Oc2ccnc3cc(Br)ccc23)C1` [Example 80, (S)-1-(2-((S)-3-((7-bromoquinolin-4-yl)oxy)pyrrolidin-1-yl)acetyl)pyrrolidine-2-carbonitrile]: the IC50 in assay [1] (setting [3]) was 20.5 nM. Moreover, the inhibition at 1 µM in assay [2] came out at 5.1%.

As to `N#C[C@@H]1CCCN1C(=O)CN1CC[C@H](Oc2ccc3c(c2)CCC(=O)N3)C1` [Example 77, (S)-1-(2-((S)-3-((2-oxo-1,2,3,4-tetrahydroquinolin-6-yl)oxy)pyrrolidin-1-yl)acetyl)pyrrolidine-2-carbonitrile], the IC50 in assay [1] (setting [3]) was 82.3 nM. Further, in assay [2], the inhibition at 1 µM turned out to be 0.4%.

Take `N#C[C@@H]1CCCN1C(=O)CN1CC[C@H](Oc2cc(OCc3ccccc3)ccn2)C1` [Example 93, (S)-1-(2-((S)-3-((4-(benzyloxy)pyridin-2-yl)oxy)pyrrolidin-1-yl)acetyl)pyrrolidine-2-carbonitrile]: the IC50 in assay [1] (setting [3]) amounted to 69.6 nM. Also, the inhibition at 1 µM in assay [2] is 11.6%.

As for `N#C[C@@H]1CCCN1C(=O)CN1CC[C@H](Oc2ccccc2Cc2ccccc2)C1` [Example 90, (S)-1-(2-((S)-3-(2-benzylphenoxy)pyrrolidin-1-yl)acetyl)pyrrolidine-2-carbonitrile], the inhibition at 1 µM in assay [1] is 52.9%; in assay [2], 7.7%.

Take `N#C[C@@H]1CCCN1C(=O)CN1CC[C@H](NC(=O)Cc2cccc3ccccc23)C1` [Example 38, N—((S)-1-(2-((S)-2-cyanopyrrolidin-1-yl)-2-oxoethyl)pyrrolidin-3-yl)-2-(naphthalen-1-yl)acetamide]: in assay [1] (setting [3]), the IC50 was 170 nM. For the same compound, in assay [2], the “hDPP4 inhibition % at 1 μM” value is listed as “No inhibition**”.

Regarding `N#C[C@@H]1CCCN1C(=O)CN1CC[C@H](NC(=O)c2ccnc3ccccc23)C1` [Example 30, N—((S)-1-(2-((S)-2-cyanopyrrolidin-1-yl)-2-oxoethyl)pyrrolidin-3-yl)quinoline-4-carboxamide], in assay [1] (setting [3]), the IC50 came to 145 nM. Moreover, the “hDPP4 inhibition % at 1 μM” value in assay [2] is “No inhibition**”.

On to `N#C[C@@H]1CCCN1C(=O)CN1CC[C@H](Oc2cccc(Oc3ccccc3)c2)C1` [Example 88, (S)-1-(2-((S)-3-(3-phenoxyphenoxy)pyrrolidin-1-yl)acetyl)pyrrolidine-2-carbonitrile], for which the inhibition at 1 µM in assay [1] was 57.9%; in assay [2] it was 6.1%.

Turning to `N#C[C@@H]1CCCN1C(=O)CN1CC[C@H](Nc2cccc3ccsc23)C1` [Example 21, (S)-1-(2-((S)-3-(benzo[b]thiophen-7-ylamino)pyrrolidin-1-yl)acetyl)pyrrolidine-2-carbonitrile], the IC50 in assay [1] (setting [3]) turned out to be 34.1 nM. Also, the inhibition at 1 µM in assay [2] worked out at 3.6%.

Turning to `N#C[C@@H]1CCCN1C(=O)CN1CC[C@H](Oc2ccc(Cc3ccccc3)cc2)C1` [Example 89, (S)-1-(2-((S)-3-(4-benzylphenoxy)pyrrolidin-1-yl)acetyl)pyrrolidine-2-carbonitrile], the results for the inhibition at 1 µM in assay [1] and in assay [2] were 56.8% and 7.9%, respectively.

For the compound `COc1ccc2ncccc2c1N[C@H]1CCN(CC(=O)N2CCC[C@H]2C#N)C1` [Example 240, (2S)-1-[2-[(3S)-3-[(6-methoxy-5-quinolyl)amino]pyrrolidin-1-yl]acetyl]pyrrolidine-2-carbonitrile], the IC50 in assay [1] (setting [4]) is 20 nM; in assay [2], more than 10000 nM.

Values taken from patent US11655235B2, “Pyrrolidine and piperidine compounds” (YUHAN CORPORATION, priority 2019, dated 2023).
